Data from PubChem BioAssay AID720588 (Broad Institute, 2013).
Active and inactive are the calls of the source.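 Rule for the calls: active = fitted curve falls past a set limit of signal loss at no more than twice the top dose; inconclusive = flat fit between 30 and 70% signal loss, or poor fit; inactive = signal rise, flat within 30%, or crossing too high.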

Assay: ATP-based viability loss in HEK293T cells – cell-based, CellTiter-Glo luminescence, cherry-pick, set 3, cytotoxicity control, dose response (AID 720588)
Conditions: HEK293T viability, CellTiter-Glo ATP luminescence, 72 h; at 26 µM (top of the series)

SMILES | activity change, negative = cytotoxicity
COC(=O)Cc1ccc(NC(=O)c2ccccc2Cl)cc1 | -2.38% (inactive)
Cc1ccc2c(=O)n3c(nc2c1)C(Cc1ccc(O)cc1)NC(=O)c1cc2ccccc2cc1-3 (stereo not drawn) | -16.8% (inactive)
CCCC[C@@H]1Cc2[nH][nH]c(=O)c2[C@H](c2ccc3ccccc3c2)O1 | 16.6% (inactive)
C[C@H]1CN([C@@H](C)CO)C(=O)c2cccc(NC(=O)c3ccc(-c4nccs4)cc3)c2O[C@@H]1CN(C)Cc1ccc(C(=O)Nc2ccccc2N)cc1 | 28.9% (inactive)
COc1ccc(/C=C2\Oc3ccccc3C2=O)cc1 | 7.88% (inactive)
COC(=O)C[C@@H]1CC[C@@H]2[C@H](COc3ccc(NC(=O)c4cc(C)on4)cc3C(=O)N2C)O1 | -12.8% (inactive)
COc1ccc(/C=C2\SC(=S)N(CCCC(=O)NC3CCCC3)C2=O)cc1OC | -24.3% (inactive)
C[C@@H]1CCCCO[C@@H](CN(C)C(=O)Cc2ccccc2)[C@@H](C)CN([C@@H](C)CO)C(=O)c2cc(NS(=O)(=O)c3ccc(F)cc3)ccc2O1 | 4.58% (inactive)
COc1ccc(/C=C/C(=O)c2cc(F)ccc2OC(=O)c2ccccc2OC)cc1OC | -12.6% (inactive)
Cc1cccc(NC(=O)CN2CCN(C(=O)CNC(=O)c3ccc(-c4ccccc4)cc3)CC2)c1C | -18.2% (inactive)
Cc1ccc(NC(=O)CCN2CCCCC2)cc1 | 17.2% (inactive)
O=C(N/N=C/c1ccc[nH]1)c1cc(-c2ccc(Cl)cc2)nc2ccccc12 | -26.6% (inactive)
CCNC(=O)c1cccc(S(=O)(=O)N2CCCCCC2)c1 | -6.96% (inactive)
O=C(/C=C/c1cc(Br)ccc1O)c1ccco1 | -23.9% (inactive)
COc1cc2oc3cc(C#Cc4ccc(N)cc4)ccc3c(=O)c2cc1OC | -4.88% (inactive)
COc1ccc(S(=O)(=O)N=Nc2c(O)[nH]c3ccccc23)cc1 | 16.2% (inactive)
CCc1ccc(/C=C2\SC(=S)N(CCCC(=O)Nc3cc(C)on3)C2=O)cc1 | -27.1% (inactive)
COc1cccc(Sc2ccccc2/C=N/NC(N)=O)c1 | -10.9% (inactive)
Cc1noc(C)c1NC(=O)Nc1ccc2c(c1)CC(=O)N([C@H](C)CO)C[C@@H](C)[C@@H](CN(C)Cc1ccc(Cl)c(Cl)c1)O2 | 56.7% (inactive)

SMILES | activity change, negative = cytotoxicity
O=C(N/N=C/c1cnc(N2CCCCC2)s1)c1ccc(C(F)(F)F)cc1 | -9.42% (inactive)
Cc1ccc(C(C(=O)NCc2ccco2)N(C(=O)CNC(=O)c2cccs2)c2c(C)cc(C)cc2C)cc1 (stereo not drawn) | -19.4% (inactive)
COc1cc(/C=N/NS(=O)(=O)c2ccc(C)cc2)ccc1OCc1cccc(C(=O)O)c1 | 5.87% (inactive)
O=C1c2ccc3c4c(ccc(c24)C(=O)N1c1cccc(O)c1)C(=O)N(c1cccc(O)c1)C3=O | 7.85% (inactive)
CC(=NNc1ccc2ccccc2n1)c1ccccc1O | -9.29% (inactive)
CC(C)Oc1ccc(Br)cc1C(=O)N/N=C/c1c[nH]c2ccccc12 | -16.4% (inactive)
O=C(O)c1ccc(N/N=C/c2c(F)cccc2Cl)cc1 | -29.9% (inactive)
CCc1ccc(/C=C2\SC(=S)N(CCCC(=O)NCCCN3CCOCC3)C2=O)cc1 | -13.1% (inactive)
C[C@@H]1CN([C@@H](C)CO)C(=O)Cc2cc(NS(=O)(=O)c3cccs3)ccc2O[C@H]1CN(C)Cc1ccc(Cl)c(Cl)c1 | -34.4% (inactive)
COc1ccc(N=C2C(=O)Nc3ccc(C)c(Br)c32)cc1 | -21.9% (inactive)
OCC1OC(n2cnc3c(NCc4ccco4)ncnc32)C(O)C1O (stereo not drawn) | -35.2% (inactive)
COc1cccc(S(=O)(=O)N(C)C[C@H]2OCc3cnnn3CCCC(=O)N([C@@H](C)CO)C[C@H]2C)c1 | 5% (inactive)
Cc1ccc(S(=O)(=O)N(C)C[C@H]2Oc3c(cccc3N(C)C)C(=O)N([C@@H](C)CO)C[C@@H]2C)cc1 | -21% (inactive)
C[C@H](CO)N1C[C@H](C)[C@H](CN(C)Cc2ccc(C(=O)Nc3ccccc3N)cc2)Oc2ccc(NS(=O)(=O)c3cccs3)cc2C1=O | -25.3% (inactive)
COc1ccc(/C=C2\SC(=S)N(CCCC(=O)NNC(=O)c3ccccc3O)C2=O)cc1 | 13.3% (inactive)
Cc1ccc(Cc2c(-c3ccco3)nc3c(C)cc(Br)cn23)cc1 | 15.5% (inactive)
CCC(C)Cn1c(O)cc2nn(-c3nc4ccccc4s3)c(=O)c-2c1C (stereo not drawn) | 3.58% (inactive)
COc1ccc2nc(-c3ccc(F)cc3)sc2c1 | -5.49% (inactive)
CCCNC(=O)[C@@H]1[C@@H](CO)[C@@H]2Cn3c(ccc(-c4ccccc4)c3=O)[C@H]1N2C(=O)CC | 22.7% (inactive)
